pEC50: −log10 of the molar value. Read-outs that look alike come from different tables or passages of the source.
Assays:
Format in all cases: cell-based
[1] = tested on: MM.1S BzR cells; test: Bortezomib sensitization, cell viability in PI-resistant MM.1S BzR cells; settings: for pEC50: Homo sapiens, MM1.S, cell viability after 24 hours
Procedure: (§1) Reference is made to FIG. 1. (A) The structures of novel derivatives E64FC26 and E64FC65 are shown. (B) Proteasome inhibitor (PI) resistant MM.1S BzR cells were treated with the E64FC26 at a concentration of 500 nM and a dose range of the PI bortezomib (Btz). Cell viability was measured after 24 hours of treatment. […] (C) PANC-1 pancreatic cancer cells were treated with the indicated derivative at a final concentration of 1 μM and a dose range of Btz. Cell viability was measured after a 48 hour treatment time. […] (D) Panels of pancreatic, ovarian, glioma, multiple myeloma, and normal cells were treated with E64FC26 and a dose range of the second generation proteasome inhibitor carfilzomib (Crflz) using a protocol similar to that described above for panels (B) and (C). Crflz EC50 values were extrapolated from dose curves conducted in the presence and absence of E64FC26 and a fold-change was calculated. Each data point represents the fold-change, or the degree of Crflz potentiation, for each cell line tested.

[2] = tested on: PANC-1 pancreatic cancer cells; test: Bortezomib sensitization, cell viability in PANC-1 pancreatic cancer cells; settings: PANC-1 cells; for pEC50: Homo sapiens, cell viability after 48 hour treatment; for fold increase in Btz sensitivity: compound at 1 μM vs DMSO, 48 hour
Procedure: as §1

[3] = tested on: PANC-1 pancreatic cancer cells; test: Panobinostat (HDAC inhibitor) sensitization, cytotoxicity in PANC-1 pancreatic cancer cells; settings: PANC-1 cells; for pEC50: Homo sapiens; for increase in panobinostat sensitivity (fold): 1 μM compound vs DMSO
Procedure: Reference is made to FIG. 3. (A) In PANC-1 pancreatic cancer cells, the cytotoxicity of each of the indicated HDAC inhibitors was evaluated in the presence and absence of 1 μM E64FC26. EC50 values are shown. (B) Similar experiments as described in (A) were conducted using T98G glioblastoma cells. EC50 values for each of the HDAC inhibitor in the presence and absence of 1 μM E64FC26. (C) Panels of the indicated tumor cell types were treated with a dose range of the HDAC inhibitor panobinostat in the presence and absence of 1 μM E64FC26. EC50 values were extrapolated and the relative effect of E64FC26 on panobinostat sensitivity was calculated. Each data point indicated the fold change in panobinostat EC50 for that particular cell line. (D) An example of full panobinostat dose response curves in PANC-1 pancreatic cancer cells are shown. PANC-1 cells were co-treated with DMSO vehicle control, 1 μM E64FC26, or 1 μM E64FC65.

[4] = co-treated with 1 μM compound, read-out: panobinostat EC50 in the presence of the compound
[5] = compound at 1 μM, read-out: Btz EC50 in the presence of the compound

| Structure (SMILES) | pEC50 ([1]; Btz alone (DMSO vehicle), read-out: Btz EC50, control cells treated with DMSO vehicle) | pEC50 ([2]; Btz alone (DMSO vehicle), read-out: Btz EC50 in the presence of DMSO vehicle control) | fold increase in Btz sensitivity ([1]; 500 nM compound vs DMSO, 24 hours) | pEC50 ([1]; co-treatment with 500 nM compound, read-out: Btz EC50 in cells co-treated with the compound) | pEC50 [3, 4] | increase in panobinostat sensitivity (fold) [3] | pEC50 [2, 5] | fold increase in Btz sensitivity [2] | pEC50 ([3]; panobinostat alone (DMSO vehicle), read-out: panobinostat EC50 in DMSO treated cells) |
| --- | --- | --- | --- | --- | --- | --- | --- | --- | --- |
| CC(C)C[C@H](NC(=O)[C@H](Cc1ccccc1)NC(=O)c1cnccn1)B(O)O [Btz, bortezomib, reference compound] | 7.34 | 7.08 |  |  |  |  |  |  |  |
| CCCCCCCC/C=C1\C=C(C(F)(F)F)c2cc(O)c(O)cc21 [E64FC26] |  |  | 9.7 fold | 8.33 | 8.28 | 85.5 fold | 8.04 | 9.2 fold |  |
| CCCCCC/C=C1\C=C(C(F)(F)F)c2cc3c(cc21)OCO3 [E64FC65, (5E)-7-(trifluoromethyl)-5-heptylidene-5H-indeno[5,6-d][1,3]dioxole] |  |  |  |  | 8.96 | 412 fold | 8.74 | 46.4 fold |  |
| Cc1[nH]c2ccccc2c1CCNCc1ccc(/C=C/C(=O)NO)cc1 [panobinostat, reference compound] |  |  |  |  |  |  |  |  | 6.34 |
